Consider 23 molecules from PubChem BioAssay AID256 (DTP/NCI, 2004).

Several values for one entry are separate records, joined by “and”; a condition that tells them apart may be missing. Equal values may be shown once. Inconclusive results and toxic doses are left out.

The experiment relates to CD2F1 mice, L1210 leukemia ip, survival T/C. In words: NCI In Vivo Anticancer Drug Screen. Data for tumor model L1210 Leukemia (intraperitoneal) in CD2F1 (CDF1) mice. The conditions noted are these: endpoint: mean survival time, higher = longer survival. Summed up: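 Activity against a transplanted murine tumor was judged by comparing the compound group with a vehicle group. The outcome in the treated animals was divided by that in the controls.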

The mark [1] stands for this setting: dose: 25.0 mg/kg/injection, schedule: Q01DX001 (ip), vehicle: saline with Tween-80.
[2] abbreviates: dose: 50.0 mg/kg/injection, schedule: Q01DX001 (ip), vehicle: saline with Tween-80.
[3] abbreviates: dose: 100.0 mg/kg/injection, schedule: Q01DX001 (ip), vehicle: saline with Tween-80.
Setting [4] is: dose: 50.0 mg/kg/injection, schedule: Q01DX009 (ip), vehicle: saline.
The mark [5] stands for this setting: dose: 100.0 mg/kg/injection, schedule: Q01DX009 (ip), vehicle: saline with Tween-80.
[6] abbreviates: dose: 200.0 mg/kg/injection, schedule: Q01DX009 (ip), vehicle: saline with Tween-80.
[7] abbreviates: dose: 100.0 mg/kg/injection, schedule: Q04DX003 (ip), vehicle: saline with Tween-80.
Setting [8] is: dose: 200.0 mg/kg/injection, schedule: Q04DX003 (ip), vehicle: saline with Tween-80.
[9] abbreviates: dose: 400.0 mg/kg/injection, schedule: Q01DX009 (ip), vehicle: saline with Tween-80.
The mark [10] stands for this setting: dose: 400.0 mg/kg/injection, schedule: Q04DX003 (ip), vehicle: saline with Tween-80.
Where [11] appears, read: dose: 12.5 mg/kg/injection, schedule: Q04DX003 (ip), vehicle: saline with Tween-80.
[12] abbreviates: dose: 25.0 mg/kg/injection, schedule: Q04DX003 (ip), vehicle: saline with Tween-80.
The mark [13] stands for this setting: dose: 50.0 mg/kg/injection, schedule: Q04DX003 (ip), vehicle: saline with Tween-80.
Setting [14] is: dose: 50.0 mg/kg/injection, schedule: Q01DX009 (ip), vehicle: saline with Tween-80.
[15] abbreviates: dose: 200.0 mg/kg/injection, schedule: Q01DX001 (ip), vehicle: saline with Tween-80.
[16] abbreviates: dose: 400.0 mg/kg/injection, schedule: Q01DX001 (ip), vehicle: saline with Tween-80.

For `C(#Cc1ccccc1)/C=C/C=C/c1ccccc1`, the T/C was 95 % of control under setting [1]; 87 % of control under setting [2]; 87 % of control and 89 % of control under setting [3].
Take `COC1OCC(O)C(NC(=O)N(C)N=O)C1O` (configuration not stated): the T/C is, setting by setting: under setting [4], 160 % of control; (dose: 75.0 mg/kg/injection, schedule: Q01DX009 (ip), vehicle: saline) 186 % of control.
As to `O=C(c1ccc(-c2ccccc2)cc1)C1C(c2ccccc2)N1C1CCCCC1` (configuration not stated), the T/C (dose: 12.5 mg/kg/injection, schedule: Q01DX009 (ip), vehicle: other) was 102 % of control and 96 % of control; the T/C (dose: 25.0 mg/kg/injection, schedule: Q01DX001 (ip), vehicle: water) is 96 % of control and 98 % of control; the T/C (dose: 25.0 mg/kg/injection, schedule: Q01DX009 (ip), vehicle: other) was 96 % of control and 97 % of control; the T/C (dose: 50.0 mg/kg/injection, schedule: Q01DX001 (ip), vehicle: water) was 88 % of control and 90 % of control; the T/C (dose: 50.0 mg/kg/injection, schedule: Q01DX009 (ip), vehicle: other) was 102 % of control and 88 % of control; the T/C (dose: 100.0 mg/kg/injection, schedule: Q01DX001 (ip), vehicle: water) is 95 % of control and 101 % of control. Besides, the T/C (dose: 100.0 mg/kg/injection, schedule: Q01DX009 (ip), vehicle: other) was 86 % of control and 97 % of control; the T/C (dose: 200.0 mg/kg/injection, schedule: Q01DX001 (ip), vehicle: water) is 90 % of control and 92 % of control; the T/C (dose: 200.0 mg/kg/injection, schedule: Q01DX009 (ip), vehicle: other) is 94 % of control; the T/C (dose: 400.0 mg/kg/injection, schedule: Q01DX001 (ip), vehicle: water) is 92 % of control.
As to `c1ccc2[nH]c(CCCCCCCCc3nc4ccccc4[nH]3)nc2c1`, the T/C runs as follows: under setting [5], 102 % of control; under setting [6], 104 % of control.
Consider `COc1ccc2cc(O)ccc2c1`, for which the T/C runs as follows: under setting [5], 96 % of control; under setting [7], 104 % of control; under setting [6], 98 % of control; under setting [8], 113 % of control; under setting [9], 100 % of control; under setting [10], 90 % of control.
As for `Cc1cccc(-c2cc(Cl)c3cc(S(=O)(=O)F)ccc3n2)c1`, the T/C under setting [5] was 94 % of control; the T/C under setting [7] was 104 % of control; the T/C under setting [6] was 93 % of control; the T/C under setting [8] is 101 % of control; the T/C under setting [9] was 100 % of control; the T/C under setting [10] is 92 % of control.
Turning to `CC1(C)C([N+](C)(C)C)CS1(=O)=O` (configuration not stated), the T/C was 105 % of control (dose: 100.0 mg/kg/injection, schedule: Q01DX001 (ip), vehicle: saline); 96 % of control (dose: 100.0 mg/kg/injection, schedule: Q04DX003 (ip), vehicle: saline); 103 % of control (dose: 200.0 mg/kg/injection, schedule: Q01DX001 (ip), vehicle: saline); 101 % of control (dose: 200.0 mg/kg/injection, schedule: Q04DX003 (ip), vehicle: saline); 103 % of control (dose: 400.0 mg/kg/injection, schedule: Q01DX001 (ip), vehicle: saline); 96 % of control (dose: 400.0 mg/kg/injection, schedule: Q04DX003 (ip), vehicle: saline).
With `CCn1c(N)c2c(ncn2Cc2ccccc2)nc1=S`, the T/C was 100 % of control (dose: 12.5 mg/kg/injection, schedule: Q01DX001 (ip), vehicle: acetone); 98 % of control under setting [11]; 100 % of control (dose: 25.0 mg/kg/injection, schedule: Q01DX001 (ip), vehicle: acetone); 98 % of control under setting [12]; 103 % of control (dose: 50.0 mg/kg/injection, schedule: Q01DX001 (ip), vehicle: acetone); 89 % of control under setting [13].
Consider `O=C(CNC(=O)Nc1cccc(C(F)(F)F)c1)N/N=C/c1cccs1`, for which the T/C by setting is: under setting [14], 88 % of control; under setting [5], 96 % of control; under setting [6], 92 % of control.
Turning to `N#CN=C([S-])[S-].N#CN=C([S-])[S-].[Cu]`, the T/C is 93 % of control (dose: 12.5 mg/kg/injection, schedule: Q04DX003 (ip), vehicle: acetone) and 94 % of control (dose: 25.0 mg/kg/injection, schedule: Q04DX003 (ip), vehicle: acetone).
With `c1ccc(CCc2ccccc2)cc1`, the T/C runs as follows: under setting [12], 100 % of control; under setting [13], 103 % of control; under setting [3], 100 % of control; under setting [7], 104 % of control and 105 % of control; under setting [15], 103 % of control; under setting [8], 101 % of control. Besides, the T/C runs as follows: under setting [16], 91 % of control; under setting [10], 107 % of control.
Consider `Cc1ccc(-n2c(O)c(N=Nc3ccccc3)c(=O)n(-c3ccc(C)cc3)c2=S)cc1`, for which the T/C is 95 % of control under setting [3], 100 % of control under setting [15] and 97 % of control under setting [16].
Turning to `CC(C)(C)OC(=O)NC(CSC(c1ccccc1)(c1ccccc1)c1ccccc1)C(=O)NCC(=O)O` (configuration not stated), under “dose: 75.0 mg/kg/injection, schedule: Q01DX001 (ip), vehicle: saline”, the T/C is 96 % of control.
`CN(C)CCCN=Cc1ccc(O)cc1O.CN(C)CCCN=Cc1ccc(O)cc1O.[Ni+2]`: the T/C was 94 % of control (dose: 12.5 mg/kg/injection, schedule: Q01DX009 (ip), vehicle: saline with Tween-80); 93 % of control (dose: 25.0 mg/kg/injection, schedule: Q01DX009 (ip), vehicle: saline with Tween-80); 94 % of control under setting [14].
As for `CC(C)c1ccc(-n2cnc3c(=O)[nH]c(N)nc32)cc1`, the T/C runs as follows: under setting [3], 94 % of control; under setting [15], 94 % of control; under setting [16], 91 % of control.
For the molecule `CCCCCNCCOC(=O)c1ccc(N)cc1`, the T/C is 100 % of control (dose: 5.0 mg/kg/injection, schedule: Q01DX001 (ip), vehicle: saline); 100 % of control (dose: 10.0 mg/kg/injection, schedule: Q01DX001 (ip), vehicle: saline); 94 % of control (dose: 20.0 mg/kg/injection, schedule: Q01DX001 (ip), vehicle: saline); 104 % of control (dose: 40.0 mg/kg/injection, schedule: Q01DX001 (ip), vehicle: saline).
`CCOC(=O)c1ccc(N(CCO)CCO)cc1`: the T/C by setting is: (dose: 75.0 mg/kg/injection, schedule: Q01DX001 (ip), vehicle: other) 94 % of control; (dose: 150.0 mg/kg/injection, schedule: Q01DX001 (ip), vehicle: other) 97 % of control; (dose: 300.0 mg/kg/injection, schedule: Q01DX001 (ip), vehicle: other) 102 % of control.
`CN(N=O)C(=O)NC1C(CO)OC(n2ccc(N)nc2=O)C1O` (configuration not stated): the T/C was 101 % of control (dose: 12.5 mg/kg/injection, schedule: Q01DX001 (ip), vehicle: saline with Tween-80); 110 % of control under setting [1]; 98 % of control under setting [2]; 98 % of control under setting [3]; 103 % of control under setting [15]; 108 % of control under setting [16].
Consider `CN(C)c1ccc([N+](=O)[O-])cc1[N+](=O)[O-]`, for which the T/C is, setting by setting: (dose: 62.5 mg/kg/injection, schedule: Q01DX001 (ip), vehicle: Klucel (hydroxypropylcellulose) (HPC)) 94 % of control; (dose: 125.0 mg/kg/injection, schedule: Q01DX001 (ip), vehicle: Klucel (hydroxypropylcellulose) (HPC)) 94 % of control; (dose: 250.0 mg/kg/injection, schedule: Q01DX001 (ip), vehicle: Klucel (hydroxypropylcellulose) (HPC)) 92 % of control; (dose: 500.0 mg/kg/injection, schedule: Q01DX001 (ip), vehicle: Klucel (hydroxypropylcellulose) (HPC)) 102 % of control.
For `[Cl][Pt+2][Cl].[NH-]c1cccc(F)c1.[NH-]c1cccc(F)c1`, the T/C is 97 % of control under setting [11], 114 % of control under setting [12] and 102 % of control under setting [13].
With `COC(=O)/C=C\C(=O)O`, the T/C by setting is: under setting [4], 102 % of control; (dose: 100.0 mg/kg/injection, schedule: Q01DX009 (ip), vehicle: saline) 100 % of control.
As for `C=CC/C=C/CCCCCC`, the T/C reads like this: under setting [14], 114 % of control; under setting [5], 96 % of control; under setting [6], 107 % of control.
With `CCCCCC(=O)C(C)CC` (configuration not stated), the T/C was 96 % of control under setting [7], 104 % of control under setting [8] and 94 % of control under setting [10].
